We go through one compound from patent US12390447B2, “Sirtuin 6 protein deacylase (SIRT6) activators” (Wisconsin Alumni Research Foundation, priority 2019, dated 2025).

Common to all, as to assay type: biochemical
For one assay, the target named is SIRT6 WT (Homo sapiens, UniProt Q8N6T7). Briefly: Steady-state deacetylation rate of SIRT6 WT with or without CL5D. As to conditions: SIRT6 WT 1 μM, H3K9ac 40 μM, CL5D 50 μM, 25 minutes. Here is the method: (§1) All sirtuin deacylation assays were carried out at 37° C. in 20 mM potassium phosphate pH 7.5 with 0.5 mM NAD^+, 10% DMSO, and 20 μM H3K9ac or H3K9myr peptides, unless otherwise noted in legend, and quenched by the addition of 2% TFA final. Steady-state reactions were constrained to less than 20% substrate turnover to prevent product inhibition. A variety of times were required to monitor SIRT6 deacetylation (2-60 minutes) under this restraint given the ability to strongly activate catalysis. In these cases, specific activities were determined and either reported as is or as fold-activation of specific activity. Deacylation reactions were analyzed by reversed phase high-performance liquid chromatography on a Kinetex C18 column (100 Å, 100×4.6 mm, 2.6 μm, Phenomenex) by monitoring the formation of the deacylated product at 214 nm. Deacetylation reactions were analyzed using a gradient of 33-100% B (30% acetonitrile with 0.05% TFA) in 8 min at 1.6 mL min^−1. Demyristoylation reactions were analyzed using a gradient of 3 to 100% B (acetonitrile with 0.05% TFA) in 10 min at 1.6 mL min^−1. The product and substrate peaks were quantified and ratio of these allowed for quantification of product formation. Three independent experiments were performed for each condition with averages being plotted and error bars representing the standard deviation of these replicates. […]

Assay [1] addresses T1, SIRT6 (Homo sapiens, UniProt Q8N6T7). Briefly: Histone deacetylation assay with acid extracted histones, H3K9ac immunoblot. Conditions: 50 μM compound; histones 75 μg/mL from SAHA-treated HEK293T cells; SIRT6 1 μM. Here is the method:
HEK293T cells were cultured in Dulbecco's Modified Eagle Medium supplemented with 10% fetal bovine serum. Cells were treated with 10 μM SAHA for 24 hours prior to harvest. Cells were trypsinized and pelleted prior to washing twice with ice-cold PBS. Cells were then resuspended in 800 μL ice-cold 10 mM HEPES pH 7.4, 10 mM KCl, 0.05% NP-40, and histone deacetylase and protease inhibitors (1 mM sodium butyrate, 4 μM trichostatin A, 100 μM phenylmethylsulfonyl fluoride, 10 μg/mL leupeptin, and 10 μg/mL aprotinin) for 20 minutes. After a 1,000×g 10 minute spin at 4° C. the pelleted nuclei were resuspended in 0.2 M HCl and incubated on ice for 20 minutes. Following 10 minute spin at 21,000×g at 4° C. the acid extracted supernatant was neutralized with 1 M Tris-HCl pH 8 prior to BCA protein concentration measurement. Histone deacetylation assays were ran with 75 μg/mL extracted histones, 1 μM SIRT6, 50 μM CL5, CL5D or 5% DMSO control, 0.5 mM NAD^+, in 20 mM potassium phosphate pH 7.5. Reactions ran at 37° C. prior to quench with SDS loading dye and 5 minute boil. 540 ng of nuclei acid extract following sirtuin reaction were loaded for 15% SDS-PAGE followed by transfer to nitrocellulose. Membrane was blocked with 1% milk before blotted with anti-H3K9ac (Active Motiff 39917) 1:3000 and imaged. […] Bands were quantified using Image Studio Lite (LiCor). […]

For assay [2], the target named is T1, SIRT6. The assay can be described thus: Burst kinetic analysis of SIRT6 deacetylation. Conditions: SIRT6 10 μM, 400 μM H3K9ac peptide, 500 μM NAD+. Here is the method:
SIRT6 (10 μM) was mixed with either H3K9ac peptide (400 μM) or NAD^+ (500 μM) in 20 mM potassium phosphate pH 7.5 and preheated to 37° C. for 3 minutes. Reactions were initiated either through the addition of NAD^+ (500 μM final) or H3K9ac peptide (400 μM final) and quenched after 10-1800 seconds by the addition of 3% TFA final. For each experiment, a control reaction in which H3K9ac peptide was excluded was collected at each timepoint and subtracted from corresponding experimental reactions to control for NAD^+ degradation. Nicotinamide and deacetylated peptide product were quantified by reverse-phase HPLC as described in the rapid quench flow kinetics methods section.
To further dissect the catalytic step(s) in kcat/Km,H3K9ac that are enhanced in the presence of activator, reaction conditions were set up to identify the existence of product ‘bursts’ during the first catalytic turnover. High concentrations of SIRT6 (10 μM) in the presence of 400 μM H3K9ac peptide were rapidly mixed with 500 μM NAD^+, and after an acid quench at different times, the products nicotinamide and deacetylated peptide were resolved and quantified by HPLC. […] The order of substrate mixing had no effect on the product curves.

The next assay deals with SIRT6 K81A (Homo sapiens, UniProt Q8N6T7, K81A). Briefly: Steady-state deacetylation rate of SIRT6 K81A with or without CL5D. As to conditions: SIRT6 K81A 1 μM, H3K9ac 40 μM, CL5D 50 μM, 25 minutes. The method, then: as §1
Chain of SIRT6 K81A (Q8N6T7 whole entry K81A): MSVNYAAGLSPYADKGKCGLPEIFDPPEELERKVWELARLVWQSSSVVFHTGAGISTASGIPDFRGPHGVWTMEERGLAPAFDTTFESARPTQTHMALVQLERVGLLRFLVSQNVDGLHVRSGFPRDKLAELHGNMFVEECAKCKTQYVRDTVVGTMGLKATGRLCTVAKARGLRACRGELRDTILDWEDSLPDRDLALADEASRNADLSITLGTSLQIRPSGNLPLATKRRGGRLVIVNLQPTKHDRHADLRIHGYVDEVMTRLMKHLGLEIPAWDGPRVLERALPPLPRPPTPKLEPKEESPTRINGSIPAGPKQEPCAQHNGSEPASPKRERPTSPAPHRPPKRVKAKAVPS

T1 sequence (Q8N6T7 whole entry): as the sequence (Q8N6T7 whole entry K81A) above, with A81K counted along it
Chain of SIRT6 WT (Q8N6T7 whole entry): as the sequence (Q8N6T7 whole entry K81A) above, with A81K counted along it

In the case of `O=C(O)c1ccc2c(c1)C(=O)N(c1ccc(N(C(=O)c3c(Cl)cc(Cl)cc3Cl)C(=O)c3c(Cl)cc(Cl)cc3Cl)c(Cl)c1)C2=O` [CL-5D, 2-(3-chloro-4-(2,4,6-trichloro-N-(2,4,6-trichlorobenzoyl)benzamido)phenyl)-1,3-dioxoisoindoline-5-carboxylic acid], the RateCL5D on SIRT6 WT worked out at 0.164 ± 0.008 µM/min; on SIRT6 K81A it was 0.125 ± 0.003 µM/min. The “SIRT6 deacetylation at H3K9 of whole histone substrate (in words)” value at SIRT6 [1] is listed as “stimulated”. Further, the “rate enhancement in the presence of CL5D” value at SIRT6 [2] was 1.8 fold.
